This is an account of results in ChEMBL document CHEMBL1201861, “Genomics of Drug Sensitity in Cancer screening data, Wellcome Trust Sanger Institute”.

Some results are limits rather than exact numbers.

One test concerns KMS-12-PE. As to the kind of experiment: cells. It counts as functional, cell-based, Homo sapiens. The settings on record: Homo sapiens, KMS-12-PE.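 Further: growth inhibition of human KMS-12-PE cells, measured with a cell viability assay.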
The next test deals with LC4-1. As to the kind of experiment: cells. It counts as functional, cell-based, Homo sapiens. The settings on record: Homo sapiens, LC4-1.
In the next test the test system is BOKU. Kind of test: cells. It counts as functional, cell-based, Homo sapiens. The settings on record: Homo sapiens, BOKU.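 Further: growth inhibition of the human BOKU cell line, read out by a cell viability assay.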
The test system of another test is COR-L279. As to the kind of experiment: SANGER: Inhibition of human COR-L279 cell growth in a cell viability assay. Format: functional, cell-based. The settings on record: Homo sapiens, COR-L279.
Another test relates to CPC-N. Kind of test: cells. Format: functional, cell-based, Homo sapiens. The settings on record: Homo sapiens, CPC-N.
For the next test, the system named is EB2. Kind of test: cells. Format: functional, cell-based, Homo sapiens. The settings on record: Homo sapiens, EB2.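 Further: growth inhibition of EB2 cells, read out with a cell viability assay.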
The test system of another test is IM-9. As to the kind of experiment: SANGER: Inhibition of human IM-9 cell growth in a cell viability assay. It counts as functional, cell-based. The settings on record: Homo sapiens, IM-9.
The subject of another test is MONO-MAC-6. As to the kind of experiment: cells. Format: functional, cell-based, Homo sapiens. The settings on record: Homo sapiens, MONO-MAC-6.
Another test deals with RL95-2. Kind of test: cells. It counts as functional, cell-based. The settings on record: Homo sapiens.
The next test relates to IST-SL2. As to the kind of experiment: cells. Format: functional, cell-based, Homo sapiens. The settings on record: Homo sapiens, IST-SL2.
For the next test, the system named is HCC1599. Kind of test: cells. Format: functional, cell-based, Homo sapiens. The settings on record: Homo sapiens, HCC1599.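 Further: growth inhibition of HCC1599 cells, read out in a cell viability assay.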
In a further test the test system is NCI-H1963. As to the kind of experiment: cells. It counts as functional, cell-based, Homo sapiens. The settings on record: Homo sapiens, NCI-H1963.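 Further: cell growth inhibition of the human line, determined with a cell viability assay.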
Another test concerns DG-75. Kind of test: cells. It counts as functional, cell-based, Homo sapiens. The settings on record: Homo sapiens, DG-75.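 Further: growth inhibition of DG-75 cells, read out with a cell viability assay.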
In another test the test system is LP-1. Kind of test: cells. Format: functional, cell-based, Homo sapiens. The settings on record: Homo sapiens, LP-1.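 Further: growth inhibition of human LP-1 cells, with the read-out taken from a cell viability assay.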
A further test concerns TALL-1. Kind of test: cells. The settings on record: Homo sapiens, TALL-1. Format: functional, cell-based, Homo sapiens.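 Further: growth inhibition of cultured human TALL-1 cells, read out by a cell viability assay.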
The subject of the next test is MRK-nu-1. As to the kind of experiment: cells. Format: functional, cell-based, Homo sapiens. The settings on record: Homo sapiens, MRK-nu-1.
For another test, the system named is NCI-H2196. As to the kind of experiment: cells. Format: functional, cell-based, Homo sapiens. The settings on record: Homo sapiens, NCI-H2196.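 Further: cell viability assay used as the readout of growth inhibition in NCI-H2196 cells.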

Description for BOKU: SANGER: Inhibition of human BOKU cell growth in a cell viability assay.
Description for CPC-N: SANGER: Inhibition of human CPC-N cell growth in a cell viability assay.
Description for DG-75: SANGER: Inhibition of human DG-75 cell growth in a cell viability assay.
Description for EB2: SANGER: Inhibition of human EB2 cell growth in a cell viability assay.
Description for HCC1599: SANGER: Inhibition of human HCC1599 cell growth in a cell viability assay.
Description for IST-SL2: SANGER: Inhibition of human IST-SL2 cell growth in a cell viability assay.
Description for KMS-12-PE: SANGER: Inhibition of human KMS-12-PE cell growth in a cell viability assay.
Description for LC4-1: SANGER: Inhibition of human LC4-1 cell growth in a cell viability assay.
Description for LP-1: SANGER: Inhibition of human LP-1 cell growth in a cell viability assay.
Description for MONO-MAC-6: SANGER: Inhibition of human MONO-MAC-6 cell growth in a cell viability assay.
Description for MRK-nu-1: SANGER: Inhibition of human MRK-nu-1 cell growth in a cell viability assay.
Description for NCI-H1963: SANGER: Inhibition of human NCI-H1963 cell growth in a cell viability assay.
Description for NCI-H2196: SANGER: Inhibition of human NCI-H2196 cell growth in a cell viability assay.
Description for RL95-2: SANGER: Inhibition of human RL95-2 cell growth in a cell viability assay.
Description for TALL-1: SANGER: Inhibition of human TALL-1 cell growth in a cell viability assay.

Consider `CCN(CC)CCNC(=O)c1c(C)[nH]c(/C=C2\C(=O)Nc3ccc(F)cc32)c1C` [SUNITINIB], for which the IC50 in the test with KMS-12-PE was over 8 µM; in the test with LC4-1, 4.38 µM; in the test with BOKU, over 8 µM; in the test on COR-L279 it was over 8 µM; with CPC-N, over 8 µM; in the test with EB2, over 8 µM. Further, the IC50 with IM-9 was over 8 µM; in the test on MONO-MAC-6, 0.0338 µM; with RL95-2 it was 2.11 µM; with IST-SL2 it was 6.13 µM; with HCC1599, over 8 µM; with NCI-H1963, over 8 µM. Moreover, the IC50 was 6.43 µM in the test on DG-75; over 8 µM in the test with LP-1; over 8 µM in the test on TALL-1; over 8 µM with MRK-nu-1; over 8 µM in the test with NCI-H2196.
In the case of `COc1cc(N2CCN(C)CC2)ccc1Nc1ncc2c(n1)N(C)c1ccccc1C(=O)N2C`, the IC50 with KMS-12-PE was over 8 µM; in the test with LC4-1, 4.02 µM; in the test on COR-L279, 7.99 µM; in the test on CPC-N it was over 8 µM; in the test on EB2 it was 2.82 µM; with IM-9 it was over 8 µM. Also, the IC50 was over 8 µM with MONO-MAC-6; over 8 µM in the test on RL95-2; 3.82 µM in the test on IST-SL2; over 8 µM in the test with HCC1599; over 8 µM in the test with NCI-H1963; 5.61 µM in the test with DG-75. Also, the IC50 in the test on LP-1, in the test on TALL-1, in the test on MRK-nu-1 and in the test with NCI-H2196 was over 8 µM throughout.
As to `OCCCNc1cc(-c2ccnc(Nc3cccc(Cl)c3)n2)ccn1`, the IC50 with KMS-12-PE is over 0.256 µM; in the test with LC4-1, 0.0713 µM; in the test on BOKU it was 0.0543 µM; in the test with COR-L279, 0.171 µM; with CPC-N, over 0.256 µM; in the test on EB2, over 0.256 µM. The IC50 was over 0.256 µM with IM-9; 0.0859 µM in the test with MONO-MAC-6; 0.177 µM with RL95-2; 0.0249 µM in the test on IST-SL2; 0.0439 µM with HCC1599; 0.0931 µM in the test with NCI-H1963. Besides, the 50% inhibitory concentration (IC50) in the test with DG-75 amounted to 0.111 µM; with LP-1 it was 0.0521 µM; in the test with TALL-1 it was 0.0941 µM; with MRK-nu-1, 0.0373 µM; with NCI-H2196 it was 0.112 µM.
On to `COc1cc2ncn(-c3cc(OCc4ccccc4C(F)(F)F)c(C(N)=O)s3)c2cc1OC` [GW843682X], for which the IC50 in the test on KMS-12-PE was over 0.256 µM; with LC4-1 it was 0.0545 µM; in the test on BOKU, 0.135 µM; in the test on COR-L279, 0.0992 µM; in the test on CPC-N, 0.0412 µM; in the test on EB2, over 0.256 µM. Further, the IC50 in the test on IM-9 was over 0.256 µM; with MONO-MAC-6 it was 0.0346 µM; with RL95-2, 0.0113 µM; with IST-SL2, 0.112 µM; in the test with HCC1599, 0.0185 µM; in the test with NCI-H1963 it was 0.0138 µM. The IC50 in the test with DG-75 is 0.0633 µM; in the test on LP-1 it was 0.0625 µM; with TALL-1 it was 0.013 µM; in the test on MRK-nu-1, 0.0301 µM; with NCI-H2196, over 0.256 µM.
As for `CC(=O)O[C@H]1C(=O)[C@@]2(C)[C@H]([C@H](OC(=O)c3ccccc3)[C@]3(O)C[C@H](OC(=O)[C@H](O)[C@@H](NC(=O)c4ccccc4)c4ccccc4)C(C)=C1C3(C)C)[C@]1(OC(C)=O)CO[C@@H]1C[C@@H]2O` [PACLITAXEL], the IC50 with KMS-12-PE was over 0.102 µM; in the test on LC4-1, 0.0435 µM; in the test with BOKU it was over 0.102 µM; with COR-L279, 0.00999 µM; in the test with CPC-N it was 0.0308 µM; in the test on EB2, over 0.102 µM. In addition, the IC50 is over 0.102 µM with IM-9; 0.0302 µM in the test with MONO-MAC-6; 0.000668 µM with RL95-2; 0.0427 µM with IST-SL2; 0.0202 µM in the test on HCC1599; 0.0313 µM with NCI-H1963. Moreover, the IC50 in the test on DG-75 was 0.069 µM; in the test on LP-1, over 0.102 µM; with TALL-1 it was 0.0504 µM; in the test on MRK-nu-1, 0.00299 µM; with NCI-H2196, over 0.102 µM.
Take `COc1cc(-c2nn([C@H]3CC[C@H](N4CCN(C(C)=O)CC4)CC3)c3ncnc(N)c23)ccc1NC(=O)c1cc2ccccc2n1C`: the IC50 with KMS-12-PE, in the test with LC4-1, with BOKU, with COR-L279, in the test with CPC-N and in the test on EB2 was over 5.12 µM throughout. Besides, the IC50 in the test on IM-9 is over 5.12 µM; with MONO-MAC-6 it was over 5.12 µM; in the test on RL95-2, 0.379 µM; in the test on IST-SL2 it was 1.16 µM; in the test with HCC1599, over 5.12 µM; in the test with NCI-H1963, over 5.12 µM. For the same molecule, the IC50 is over 5.12 µM in the test on DG-75; over 5.12 µM with LP-1; over 5.12 µM in the test on TALL-1; 2.95 µM in the test with MRK-nu-1; over 5.12 µM in the test on NCI-H2196.
Take `CC[C@H](CO)Nc1nc(NCc2ccccc2)c2ncn(C(C)C)c2n1` [SELICICLIB]: the IC50 with KMS-12-PE was over 16 µM; in the test with LC4-1 it was over 16 µM; in the test with COR-L279 it was 12.3 µM; in the test with CPC-N it was over 16 µM; in the test on EB2, over 16 µM; with IM-9 it was over 16 µM. In addition, the IC50 was over 16 µM in the test with MONO-MAC-6; over 16 µM with RL95-2; over 16 µM in the test on IST-SL2; 14.6 µM in the test with HCC1599; over 16 µM with NCI-H1963; over 16 µM with DG-75. The IC50 in the test with LP-1 is over 16 µM; in the test on TALL-1, over 16 µM; in the test on MRK-nu-1, 7.13 µM; in the test with NCI-H2196, over 16 µM.
For `COc1cc2ncn(-c3cc(OCc4ccccc4S(C)(=O)=O)c(C#N)s3)c2cc1OC` [GSK-319347A], the half-maximal inhibitory concentration (IC50) in the test on KMS-12-PE, with LC4-1, in the test on COR-L279, in the test on CPC-N, with EB2 and in the test with IM-9 was over 5 µM throughout. For the same molecule, the IC50 in the test on MONO-MAC-6, in the test on RL95-2, with IST-SL2, in the test on HCC1599, with NCI-H1963 and with DG-75 was over 5 µM each time. Also, the IC50 in the test with LP-1, in the test on TALL-1, in the test with MRK-nu-1 and in the test on NCI-H2196 was over 5 µM in each case.
`N[C@@H](CSC(c1ccccc1)(c1ccccc1)c1ccccc1)C(=O)O` [S-TRITYL-L-CYSTEINE]: the IC50 in the test with KMS-12-PE was over 5.12 µM; with LC4-1 it was 2.02 µM; in the test with BOKU, over 5.12 µM; in the test with COR-L279, 2.86 µM; in the test on CPC-N, 2.46 µM; in the test with EB2 it was over 5.12 µM. For the same molecule, the IC50 was over 5.12 µM in the test on IM-9; 1.15 µM in the test on MONO-MAC-6; 0.605 µM with RL95-2; 2.26 µM with IST-SL2; 1.23 µM in the test on HCC1599; 1.15 µM with NCI-H1963. Also, the IC50 is over 5.12 µM with DG-75; 3.11 µM in the test on LP-1; 2.53 µM with TALL-1; 0.76 µM in the test on MRK-nu-1; over 5.12 µM with NCI-H2196.
For the molecule `Cc1ccc(-c2c(C(=O)CCl)n(CCCO)c3ncnc(N)c23)cc1`, the IC50 in the test on KMS-12-PE, with LC4-1, in the test with BOKU, in the test with COR-L279, in the test with CPC-N and in the test on EB2 was over 4 µM each time. The IC50 with IM-9 is over 4 µM; in the test with MONO-MAC-6 it was 3.93 µM; in the test with RL95-2, over 4 µM; in the test with IST-SL2 it was over 4 µM; in the test with HCC1599, 2.17 µM; in the test on NCI-H1963, over 4 µM. Besides, the IC50 is over 4 µM in the test on DG-75; over 4 µM with LP-1; over 4 µM in the test with TALL-1; 2.52 µM in the test with MRK-nu-1; over 4 µM in the test on NCI-H2196.
Regarding `C#Cc1cccc(Nc2ncnc3cc(OCCOC)c(OCCOC)cc23)c1` [ERLOTINIB], the IC50 with KMS-12-PE, with LC4-1, with CPC-N, in the test on EB2, with IM-9 and in the test with MONO-MAC-6 was over 2 µM throughout. Besides, the IC50 in the test with RL95-2, in the test on IST-SL2, in the test on HCC1599, with NCI-H1963, in the test on DG-75 and with LP-1 was over 2 µM each time. The IC50 in the test with MRK-nu-1 and in the test on NCI-H2196 was over 2 µM throughout.
